Data reported in ChEMBL document CHEMBL1201862, “PubChem BioAssay data set” (2004).
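Cultured in 96-well plates, cells were exposed to test compound for 48 hours across five concentrations. The concentration for 50% growth inhibition is given as GI50.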 Activity calls are given as the source filed them. Cut-off read from the data, not from the text of the source: active = GI50 up to about 1.1 µM and inactive = higher.

How the values were obtained:
Assay in all cases: NCI anticancer screen, dose series, 48 h
786-0 = test system: 786-0
A498 = test system: A498
A549 = test system: A549
ACHN = test system: ACHN
BT-549 = test system: BT-549
CAKI-1 = test system: CAKI-1
CCRF-CEM = test system: CCRF-CEM
COLO 205 = test system: COLO 205
DU-145 = test system: DU-145
EKVX = test system: EKVX
HCC 2998 = test system: HCC 2998
HCT-116 = test system: HCT-116
HCT-15 = test system: HCT-15
HL-60 = test system: HL-60
HOP-62 = test system: HOP-62
HT-29 = test system: HT-29
Hs-578T = test system: Hs-578T
IGROV-1 = test system: IGROV-1
K562 = test system: K562
KM12 = test system: KM12
LOX IMVI = test system: LOX IMVI
M14 = test system: M14
MCF7 = test system: MCF7
MDA-MB-231 = test system: MDA-MB-231
MDA-MB-435 = test system: MDA-MB-435
MOLT-4 = test system: MOLT-4
Malme-3M = test system: Malme-3M
NCI-H23 = test system: NCI-H23
NCI-H460 = test system: NCI-H460
NCI-H522 = test system: NCI-H522
NCI/ADR-RES = test system: NCI/ADR-RES
OVCAR-3 = test system: OVCAR-3
OVCAR-5 = test system: OVCAR-5
OVCAR-8 = test system: OVCAR-8
PC-3 = test system: PC-3
RPMI-8226 = test system: RPMI-8226
RXF 393 = test system: RXF 393
SF-268 = test system: SF-268
SF-295 = test system: SF-295
SF-539 = test system: SF-539
SK-MEL-28 = test system: SK-MEL-28
SK-MEL-2 = test system: SK-MEL-2
SK-MEL-5 = test system: SK-MEL-5
SK-OV-3 = test system: SK-OV-3
SN12C = test system: SN12C
SNB-19 = test system: SNB-19
SNB-75 = test system: SNB-75
SR = test system: SR
SW-620 = test system: SW-620
T47D = test system: T47D
TK-10 = test system: TK-10
U-251 = test system: U-251
UACC-257 = test system: UACC-257
UACC-62 = test system: UACC-62
UO-31 = test system: UO-31

CC1(C)[C@@H]2C[C@H]1C(Cc1ccc(C[C@H]3c4cc(-c5ccccn5)ncc4[C@H]4C[C@@H]3C4(C)C)cc1)c1cc(-c3ccccn3)ncc12 (stereo not given in full)
GI50 (786-0): 1410 nM (inactive) | GI50 (A498): 2360 nM (inactive) | GI50 (A549): 807 nM (active) | GI50 (ACHN): 971 nM (active) | GI50 (BT-549): 3330 nM (inactive) | GI50 (CAKI-1): 2450 nM (inactive) | GI50 (CCRF-CEM): 619 nM (active) | GI50 (COLO 205): 1410 nM (inactive) | GI50 (DU-145): 2310 nM (inactive) | GI50 (EKVX): 1320 nM (inactive) | GI50 (HCC 2998): 1740 nM (inactive) | GI50 (HCT-116): 750 nM (active) | GI50 (HCT-15): 2900 nM | GI50 (HL-60): 518 nM (active) | GI50 (HOP-62): 538 nM (active) | GI50 (HT-29): 1440 nM (inactive) | GI50 (Hs-578T): > 100000 nM (inactive) | GI50 (IGROV-1): 1250 nM (inactive) | GI50 (K562): 649 nM (active) | GI50 (KM12): 2180 nM (inactive) | GI50 (LOX IMVI): 843 nM (active) | GI50 (M14): 1160 nM (inactive) | GI50 (MCF7): 1890 nM (inactive) | GI50 (MDA-MB-231): 5350 nM (inactive) | GI50 (MDA-MB-435): 1130 nM (inactive) | GI50 (MOLT-4): 431 nM (active) | GI50 (Malme-3M): 4530 nM (inactive) | GI50 (NCI-H23): 2680 nM (inactive) | GI50 (NCI-H460): 916 nM (active) | GI50 (NCI-H522): 7140 nM (inactive) | GI50 (NCI/ADR-RES): 2710 nM (inactive) | GI50 (OVCAR-3): 679 nM (active) | GI50 (OVCAR-5): 1460 nM (inactive) | GI50 (OVCAR-8): 678 nM (active) | GI50 (PC-3): 587 nM (active) | GI50 (RPMI-8226): 3030 nM (inactive) | GI50 (RXF 393): 3580 nM (inactive) | GI50 (SF-268): 865 nM (active) | GI50 (SF-295): 1220 nM (inactive) | GI50 (SF-539): 1220 nM (inactive) | GI50 (SK-MEL-28): 3540 nM (inactive) | GI50 (SK-MEL-2): 7380 nM (inactive) | GI50 (SK-MEL-5): 619 nM (active) | GI50 (SK-OV-3): 7830 nM (inactive) | GI50 (SN12C): 902 nM (active) | GI50 (SNB-19): 3320 nM (inactive) | GI50 (SNB-75): 59800 nM (inactive) | GI50 (SR): 561 nM (active) | GI50 (SW-620): 3460 nM (inactive) | GI50 (T47D): 2520 nM (inactive) | GI50 (TK-10): 841 nM (active) | GI50 (U-251): 1010 nM (active) | GI50 (UACC-257): 2630 nM (inactive) | GI50 (UACC-62): 670 nM (active) | GI50 (UO-31): 931 nM (active)
